Measured values from US10806746B2, “Di- and tri-cationic glycosylated antitumor ether lipids, L-gucosylated gaels and rhamnose-linked gaels as cytotoxic agents against epithelial cancer cells and cancer stem cells” (The University of Manitoba, priority 2014, dated 2020).
Read-outs that look alike come from different tables or passages of the source.

What was measured:
Type in all cases: cell-based, human
DU145 cells = experiment: MTS viability assay, DU145 prostate cancer cells
Protocol: (§1) FIG. 2D. Effects of compounds 1-11 on the viability of DU145 cells. DU145 cells were cultured in DMEM medium supplemented with 10% FBS. Equal numbers were dispersed into 96-well plates. After 24 h, the cells were incubated with compounds 1-11 (0-30 μM) for 48 h. At the end of the incubation, MTS reagent (20% vol/vol) was added and the plates were incubated for 1-4 h. The OD490 was read with a plate reader. Wells with media but no cells were treated in similar fashion and the values utilized as blank. The results represent the mean±standard deviation of 6 independent determinations.
as §1, with “2H. Effect” for “2D. Effects”, “1, 69-72” for “1-11”, “1, 69-72” for “1-11 (0-30 μM)”
(§2) The cell lines were cultured from frozen stocks originally obtained from ATCC. MDA-MB-231, JIMT-1, DU145, U81, U251 cells were grown in DMEM medium. BT474, A2780s, A2780cp cells were grown in DMEM/F12 medium supplemented with 10% FBS. MiaPaCa2 was cultured in DMEM supplemented with 10% FBS and 2.5% horse serum. PC3 cells were cultured in F12K medium supplemented with 10% FBS. All the media were supplemented with penicillin/streptomycin.
(§3) The effects of the GAELs on the viability of the various epithelial cancer cell lines was determined as previously described. Briefly, equal numbers of the cells were dispersed into 96-well plates. After 24 h, the cells were incubated with the compounds (0-30 μM) for 48 h. At the end of the incubation, MTS reagent (20% vol/vol) was added and the plates were incubated for 1-4 h. The OD490 was read with a plate reader. Wells with media but no cells were treated in similar fashion and the values utilized as blank. The results represent the mean±standard deviation of 6 independent determinations.

PC3 cells = experiment: MTS viability assay, PC3 prostate cancer cells; settings: 48 h, MTS
Protocol: as §1, with “2E.” for “2D.”, “PC3” for “DU145”, “F12K” for “DMEM”
as §2, §3

JIMT-1 cells = experiment: MTS viability assay, JIMT-1 breast cancer cells
Protocol: as §1, with “2B.” for “2D.”, “JIMT-1” for “DU145”
as §1, with “2J.” for “2D.”, “1, 69-72” for “1-11”, “JIMT-1” for “DU145”, “1, 69-72” for “1-11 (0-30 μM)”
as §2, §3

BT-474 cells = experiment: MTS viability assay, BT-474 breast cancer cells; settings: 48 h, MTS
Protocol: as §1, with “2C.” for “2D.”, “BT-474” for “DU145”, “DMEM/F12” for “DMEM”
as §2, §3

MiaPaCa2 cells = experiment: MTS viability assay, MiaPaCa2 pancreas cancer cells
Protocol: as §1, with “2F.” for “2D.”, “MiaPaCa2” for “DU145”, “FBS and 2.5% horse serum.” for “FBS.”
as §1, with “2I.” for “2D.”, “1, 69-72” for “1-11”, “MiaPaCa2” for “DU145”, “FBS and 2.5% horse serum.” for “FBS.”, “1, 69-72” for “1-11 (0-30 μM)”
as §2, §3

MDA-MB-231 cells = experiment: MTS viability assay, MDA-MB-231 breast cancer cells
Protocol: as §1, with “FIG. 2A.” for “FIG. 2D.”, “of MDA-MB231” for “of DU145”, “cells. MDA-MB-231” for “cells. DU145”
as §1, with “2K.” for “2D.”, “1, 69-72” for “1-11”, “MDA-MB-231” for “DU145”, “1, 69-72” for “1-11 (0-30 μM)”
as §2, §3

[1] = Table 1A, 48 h, read-out: CC50 values DU 145
[2] = Table 1B, 48 h, read-out: CC90 values DU 145
[3] = Table 1A, read-out: CC50 values PC3
[4] = Table 1B, read-out: CC90 values PC3
[5] = Table 1A, 48 h, read-out: CC50 values JIMT1
[6] = Table 1B, 48 h, read-out: CC90 values JIMT1
[7] = Table 1A, read-out: CC50 values BT474
[8] = Table 1B, read-out: CC90 values BT474
[9] = Table 1A, 48 h, read-out: CC50 values MiaPaCa2
[10] = Table 1B, 48 h, read-out: CC90 values MiaPaCa2
[11] = Table 1A, 48 h, read-out: CC50 values MD 231
[12] = Table 1B, 48 h, read-out: CC90 values MD 231
[13] = Table 5, 48 h, read-out: CC50 DU-145
[14] = Table 5, 48 h, read-out: CC90 DU-145
[15] = Table 5, 48 h, read-out: CC50 JIMT1
[16] = Table 5, 48 h, read-out: CC90 JIMT1
[17] = Table 5, 48 h, read-out: CC50 Mlapaca2
[18] = Table 5, 48 h, read-out: CC90 Mlapaca2
[19] = Table 5, 48 h, read-out: CC50 MDA-MB-231
[20] = Table 5, 48 h, read-out: CC90 MDA-MB-231

Row | SMILES | CC50 (DU145 cells; [1]) [µM] | CC90 (DU145 cells; [2]) [µM] | CC50 (PC3 cells; [3]) [µM] | CC90 (PC3 cells; [4]) [µM] | CC50 (JIMT-1 cells; [5]) [µM] | CC90 (JIMT-1 cells; [6]) [µM] | CC50 (MiaPaCa2 cells; [9]) [µM] | CC90 (MiaPaCa2 cells; [10]) [µM] | CC50 (MDA-MB-231 cells; [11]) [µM] | CC90 (MDA-MB-231 cells; [12]) [µM] | CC50 (DU145 cells; [13]) [µM] | CC90 (DU145 cells; [14]) [µM] | CC50 (JIMT-1 cells; [15]) [µM] | CC90 (JIMT-1 cells; [16]) [µM] | CC50 (MiaPaCa2 cells; [17]) [µM] | CC90 (MiaPaCa2 cells; [18]) [µM] | CC50 (MDA-MB-231 cells; [19]) [µM] | CC90 (MDA-MB-231 cells; [20]) [µM] | other results
1 | CCCCCCCCCCCCCCCCOC[C@@H](CN)O[C@H]1O[C@H](CO)[C@@H](O)[C@H](O)[C@H]1N [Compound 7, 1-O-Hexadecyloxy-2R-(2′-amino-2′-deoxy-α-D-glucopyranosyl)-3-amino glycerol] | 17.5 | 25 | 9.5 | 17 | 14 | 19 | 15 | 28 | 12 | 17.5 |  |  |  |  |  |  |  |  | CC50 (BT-474 cells; [7]): 25 µM; CC90 (BT-474 cells; [8]): > 30 µM
2 | CCCCCCCCCCCCCCCCOC[C@H](CO[C@@H]1O[C@@H](CN)[C@H](O)[C@@H](O)[C@@H]1N)OC [Compound 71, 1-O-Hexadecyl-2-O-methyl-3-O-(2′,6′-diamino-2′,6′-dideoxy-α-L-glucopyranosyl)-sn-glycerol] |  |  |  |  |  |  |  |  |  |  | 6 | 8 | 4 | 6.5 | 6 | 15 | 5.5 | 7.5 | 
3 | CCCCCCCCCCCCCCCCOC[C@H](CO[C@@H]1O[C@@H](CN)[C@H](OCc2ccccc2)[C@@H](O)[C@@H]1N)OC [Compound 72, 1-O-Hexadecyl-2-O-methyl-3-O-(4′-benzyl-2′,6′-diamino-2′,6′-dideoxy-α-L-glucopyranosyl)-sn-glycerol] |  |  |  |  |  |  |  |  |  |  | 3.6 | 4.9 | 2 | 3.5 | 4.5 | 7 | 4 | 4.9 | 
4 | CCCCCCCCCCCCCCCCOC[C@H](CO[C@H]1O[C@H](CN)[C@@H](O)[C@H](O)[C@H]1N1C(=O)c2ccccc2C1=O)OC [Compound 3, 1-O-Hexadecyl-2-O-methyl-3-O-(-2′-N-phthalimido-6′-amino-2′,6′-dideoxy-δ-D-glucopyranosyl)-sn-glycerol] | > 30 | > 30 | 15 | 30 | > 30 | > 30 | > 30 | > 30 | 20 | > 30 |  |  |  |  |  |  |  |  | 
5 | CCCCCCCCCCCCCCCCOC[C@H](COC1O[C@H](CN)[C@@H](O)[C@H](O)[C@H]1NCCCN)OC (stereo partly shown) [Compound 76, 1-O-Hexadecyl-2-O-methyl-3-O-[2′-N-(3-aminopropyl)-2′,6′-diamino-2′,6′-dideoxy-glucopyranoside]-sn-glycerol] |  |  |  |  |  |  |  |  |  |  |  |  |  |  |  |  |  |  | CC50 (DU145 cells; Table 6, 48 h, read-out: DU145 CC50): 18.5 µM; CC90 (DU145 cells; Table 6, 48 h, read-out: DU145 CC90): > 20 µM; CC50 (PC3 cells; Table 6, read-out: PC3 CC50): 14.5 µM; CC90 (PC3 cells; Table 6, read-out: PC3 CC90): > 20 µM; CC50 (JIMT-1 cells; Table 6, 48 h, read-out: JIMT1 CC50): 12.5 µM; CC90 (JIMT-1 cells; Table 6, 48 h, read-out: JIMT1 CC90): 16.5 µM; CC50 (BT-474 cells; Table 6, read-out: BT474 CC50): > 20 µM; CC90 (BT-474 cells; Table 6, read-out: BT474 CC90): > 20 µM; CC50 (MiaPaCa2 cells; Table 6, 48 h, read-out: MiaPaCa2 CC50): 14.5 µM; CC90 (MiaPaCa2 cells; Table 6, 48 h, read-out: MiaPaCa2 CC90): > 20 µM; CC50 (MDA-MB-231 cells; Table 6, 48 h, read-out: MB-MDA-231 CC50): 17.5 µM; CC90 (MDA-MB-231 cells; Table 6, 48 h, read-out: MB-MDA-231 CC90): > 20 µM
6 | CCCCCCCCCCCCCCCCOCC(N)CO[C@H]1O[C@H](CO)[C@@H](O)[C@H](O)[C@H]1N (stereo partly drawn) [Compound 8, 1-O-Hexadecyloxy-2S/R-amino-3-(-2′-amino-2′-deoxy-α-D-glucopyranosyl)-glycerol] | 6 | 9 | 9 | 14 | 5.5 | 7.5 | 8.5 | 14 | 6 | 9 |  |  |  |  |  |  |  |  | CC50 (BT-474 cells; [7]): 15.5 µM; CC90 (BT-474 cells; [8]): 28 µM
7 | CCCCCCCCCCCCCCCCOC[C@H](CO[C@H]1O[C@@H](CN)[C@H](OCc2ccccc2)[C@@H](O)[C@@H]1N)OC [Compound 70, 1-O-Hexadecyl-2-O-methyl-3-O-(4′-benzyl-2′,6′-diamino-2′,6′-dideoxy-β-L-glucopyranosyl)-sn-glycerol] |  |  |  |  |  |  |  |  |  |  | 3.6 | 4.9 | 2 | 3.5 | 5 | 7.1 | 4 | 4.9 | 
